Test results: US20150191462A1, “PYRROLIDINE DERIVATIVES AND THEIR USE AS COMPLEMENT PATHWAY MODULATORS” (priority 2012, published 2015)

What follows are compounds tested against Recombinant human factor D (Homo sapiens, UniProt P00746) (assay: Human Complement Factor D Assay: Method 1). Settings: Factor D inhibition, 10 nM factor D, Z-Lys-thiobenzyl substrate, fluorescence readout.
Assay type: biochemical
Description: Human Complement Factor D Assay: Method 1 Recombinant human factor D (expressed in E. coli and purified using standard methods) at 10 nM concentration is incubated with test compound at various concentrations for 1 hour at room temperature in 0.1 M Hepes buffer, pH 7.5, containing 1 mM MgCl2, 1 M NaCl and 0.05% CHAPS. […] The increase in fluorescence is recorded at excitation of 485 nm and emission at 535 nm in a microplate spectrofluorimeter. IC50 values are calculated from percentage of inhibition of complement factor D-activity as a function of test compound concentration.

Recombinant human factor D, sequence (P00746 26-253): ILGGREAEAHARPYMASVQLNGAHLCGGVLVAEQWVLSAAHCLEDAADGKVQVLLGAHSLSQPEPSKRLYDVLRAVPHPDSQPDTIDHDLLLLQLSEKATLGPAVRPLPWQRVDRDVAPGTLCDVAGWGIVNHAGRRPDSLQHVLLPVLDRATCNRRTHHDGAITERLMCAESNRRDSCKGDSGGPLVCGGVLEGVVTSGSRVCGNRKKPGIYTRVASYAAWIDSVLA

Compound	IC50 [nM]
NC(=O)c1nn(CC(=O)N2C[C@H](F)C[C@H]2C(=O)Nc2cccc(Br)n2)c2cnc(CF)cc12 [Example 24, 1-(2-((2S,4R)-2-(6-bromopyridin-2-ylcarbamoyl)-4-fluoropyrrolidin-1-yl)-2-oxoethyl)-5-(fluoromethyl)-1H-pyrazolo[3,4-c]pyridine-3-carboxamide]	7
NC(=O)c1nn(CC(=O)N2[C@@H]3C[C@@H]3C[C@H]2C(=O)Nc2cccc(Cl)n2)c2ccccc12 [Example 20, 1{2-[(1R,3S,5R)-3-(6-Chloro-pyridin-2-ylcarbamoyl)-2-aza-bicyclo[3.1.0]hex-2-yl]-2-oxo-ethyl}-1H-indazole-3-carboxylic acid amide]	4
NC(=O)n1cc(NC(=O)N2CCS[C@H]2C(=O)Nc2cccc(Br)n2)c2ccccc21 [Example 39, (S)-N2-(6-bromopyridin-2-yl)-N3-(1-carbamoyl-1H-indol-3-yl)thiazolidine-2,3-dicarboxamide]	20
CC(=O)c1nn(CC(=O)N2[C@@H]3C[C@@H]3C[C@H]2C(=O)Nc2cncc(Br)n2)c2cnccc12 [Example 14, (1R,3S,5R)-2-[2-(3-Acetyl-pyrazolo[3,4-c]pyridin-1-yl)-acetyl]-2-aza-bicyclo[3.1.0]hexane-3-carboxylic acid (6-bromo-pyrazin-2-yl)-amide]	11
NC(=O)c1nn(CC(=O)N2C3CC(C3)C2C(=O)Nc2cccc(Br)n2)c2ccccc12 (stereo not drawn) [Example 28, N-(6-bromopyridin-2-yl)-2-(2-(3-carbamoyl-1H-indazol-1-yl)acetyl)-2-azabicyclo[2.1.1]hexane-3-carboxamide]	120
NC(=O)c1nn(CC(=O)N2[C@@H]3C[C@@H]3C[C@H]2C(=O)Nc2cccc(Br)n2)c2cnc(C3CC3)cc12 [Example 5, 1-{2-[(1R,3S,5R)-3-(6-Bromo-pyridin-2-ylcarbamoyl)-2-aza-bicyclo[3.1.0]hex-2-yl]-2-oxo-ethyl}-5-cyclopropyl-1H-pyrazolo[3,4-c]pyridine-3-carboxylic acid amide]	4
CC(=O)c1nn(CC(=O)N2[C@@H]3C[C@@H]3C[C@H]2C(=O)Nc2cccc(OC(F)F)n2)c2ccc(OCc3ncccn3)cc12 [Example 6, (1R,3S,5R)-2-{2-[3-Acetyl-5-(pyrimidin-2-ylmethoxy)-indazol-1-yl]-acetyl}-2-aza-bicyclo[3.1.0]hexane-3-carboxylic acid (6-difluoromethoxy-pyridin-2-yl)-amide]	38
CC(=O)c1nn(CC(=O)N2[C@@H]3C[C@@H]3C[C@H]2C(=O)Nc2cncc(C(F)(F)F)n2)c2cnccc12 [Example 17, (1R,3S,5R)-2-[2-(3-Acetyl-pyrazolo[3,4-c]pyridin-1-yl)-acetyl]-2-aza-bicyclo[3.1.0]hexane-3-carboxylic acid (6-trifluoromethyl-pyrazin-2-yl)-amide]	64
CO[C@H]1[C@@H](C(=O)Nc2cccc(Br)n2)N(C(=O)Cn2nc(C(C)=O)c3ccncc32)C[C@@H]1F [Example 18, (2S,3S,4S)-1-[2-(3-Acetyl-pyrazolo[3,4-c]pyridin-1-yl)-acetyl]-4-fluoro-3-methoxy-pyrrolidine-2-carboxylic acid (6-bromo-pyridin-2-yl)-amide]	7
NC(=O)n1cc(NC(=O)N2[C@@H]3C[C@@H]3C[C@H]2C(=O)Nc2cncc(Br)n2)c2ccccc21 [Example 31, (1R,3S,5R)-2-Aza-bicyclo[3.1.0]hexane-2,3-dicarboxylic acid 3-[(6-bromo-pyrazin-2-yl)-amide]2-[(1-carbamoyl-1H-indol-3-yl)-amide]]	4
NC(=O)n1cc(NC(=O)N2CCC[C@H]2C(=O)Nc2cccc(Br)n2)c2ccccc21 [Example 35, (S)-Pyrrolidine-1,2-dicarboxylic acid 2-[(6-bromo-pyridin-2-yl)-amide]-1-[(1-carbamoyl-1H-indol-3-yl)-amide]]	20
NC(=O)c1nn(CC(=O)N2[C@@H]3C[C@@H]3C[C@H]2C(=O)Nc2cccc(Br)n2)c2ccncc12 [Example 10, 1-{2-[(1R,3S,5R)-3-(6-Bromo-pyridin-2-ylcarbamoyl)-2-aza-bicyclo[3.1.0]hex-2-yl]-2-oxo-ethyl}-1H-pyrazolo[4,3-c]pyridine-3-carboxylic acid amide]	9
NC(=O)c1nn(CC(=O)N2C[C@H](F)[C@H](F)[C@H]2C(=O)Nc2cccc(Br)n2)c2ccccc12 [Example 23, 1-{2-[(2R,3R,4S)-2-(6-Bromo-pyridin-2-ylcarbamoyl)-3,4-difluoro-pyrrolidin-1-yl]-2-oxo-ethyl}-1H-indazole-3-carboxylic acid amide]	8
COc1cc(Br)nc(NC(=O)[C@@H]2C[C@H]3C[C@H]3N2C(=O)Cn2nc(C(N)=O)c3ccccc32)c1 [Example 22, 1-{2-[(1R,3S,5R)-3-(6-Bromo-4-methoxy-pyridin-2-ylcarbamoyl)-2-aza-bicyclo[3.1.0]hex-2-yl]-2-oxo-ethyl}-1H-indazole-3-carboxylic acid amide]	5
NC(=O)n1cc(NC(=O)N2[C@@H]3C[C@@H]3C[C@H]2C(=O)Nc2cncc(C(F)(F)F)n2)c2ccccc21 [Example 36, (1R,3S,5R)-2-Aza-bicyclo[3.1.0]hexane-2,3-dicarboxylic acid 2-[(1-carbamoyl-1H-indol-3-yl)-amide] 3-[(6-trifluoromethyl-pyrazin-2-yl)-amide]]	55
NC(=O)c1nn(CC(=O)N2[C@@H]3C[C@@H]3C[C@H]2C(=O)Nc2cncc(C(F)(F)F)n2)c2ccccc12 [Example 9, 1-{2-Oxo-2-[(1R,3S,5R)-3-(6-trifluoromethyl-pyrazin-2-ylcarbamoyl)-2-aza-bicyclo[3.1.0]hex-2-yl]ethyl}-1H-indazole-3-carboxylic acid amide]	32
Cc1cc2c(C(N)=O)nn(CC(=O)N3[C@@H]4C[C@@H]4C[C@H]3C(=O)Nc3cccc(C(F)(F)F)n3)c2c(C)n1 [Example 29, 5,7-dimethyl-1-(2-oxo-2-((1R,3S,5R)-3-((6-(trifluoromethyl)pyridin-2-yl)carbamoyl)-2-azabicyclo[3.1.0]hexan-2-yl)ethyl)-1H-pyrazolo[3,4-c]pyridine-3-carboxamide]	6
C[C@@]12C[C@@H](C(=O)Nc3cccc(Br)n3)N(C(=O)Nc3cn(C(N)=O)c4ccccc34)[C@@H]1C2 [Example 37, (1R,3S,5R)-5-Methyl-2-aza-bicyclo[3.1.0]hexane-2,3-dicarboxylic acid 3-[(6-bromo-pyridin-2-yl)-amide] 2-[(1-carbamoyl-1H-indol-3-yl)-amide]]	8
C[C@@]1(F)C[C@@H](C(=O)Nc2cccc(Br)n2)N(C(=O)Nc2cn(C(N)=O)c3ccccc23)C1 [Example 34, (2S,4R)-4-Fluoro-4-methyl-pyrrolidine-1,2-dicarboxylic acid 2-[(6-bromo-pyridin-2-yl)-amide] 1-[(1-carbamoyl-1H-indol-3-yl)-amide]]	14
CC(=O)c1nn(CC(=O)N2C[C@H](F)C[C@H]2C(=O)Nc2cccc(Br)n2)c2cnccc12 [Example 13, (2S,4R)-1-[2-(3-Acetyl-pyrazolo[3,4-c]pyridin-1-yl)-acetyl]-4-fluoro-pyrrolidine-2-carboxylic acid (6-bromo-pyridin-2-yl)-amide]	9
NC(=O)n1cc(NC(=O)N2C[C@H](F)[C@H](F)[C@H]2C(=O)Nc2cccc(Br)n2)c2ccccc21 [Example 38, (2R,3R,4S)-N2-(6-bromopyridin-2-yl)-N1-(1-carbamoyl-1H-indol-3-yl)-3,4-difluoropyrrolidine-1,2-dicarboxamide]	10
